# Data reported in patent publication US10422787B2, “System and method for single molecule detection” (ARIZONA BOARD OF REGENTS on behalf of ARIZONA STATE …, priority 2015, dated 2019).
# [ ]: non-standard residue; d: D form.
# What was measured:
# Type in all cases: binding
# α4β1 = biological target: T1, α4β1 (Homo sapiens, UniProt P05556+P13612); experiment: STM break-junction, effect of electrode modification (ligand) on frequency of large current events
# T1 construct: purchased R&D Systems (Bio-Techne)
# αvβ3 = biological target: T2, αvβ3 (Homo sapiens, UniProt P05106+P06756); experiment: as above
# T2 construct: the αVβ3 extracelluar domain of human integrin; purchased YO Proteins AB
# Excerpt: The molecular specificity of the αVβ3-RGD binding was investigated by comparing the selectivity of RGD functionalized surfaces with the selectivity of surfaces functionalized with cyclic RGE, a cyclic peptide of the same charge (RGD, pI=6.09; RGE pI=6.18) and differing by only one carbon atom. The effects of functionalizing only the probe or substrate were also investigated. The results of these experiments are summarized in Table 2 (no events were observed without functionalization). […] It can be concluded that one chemical contact is required for the high conductance to be observed, and that the specificity and frequency of events increases with the chemical specificity of the contact. In addition, specific binding results in larger current peaks at larger retraction distances than obtained with less-specific binding.
# RGE is a cyclic peptide differing from RGD by only one carbon atom.
# Functionalizing STM probes and substrates: The STM probes were etched from a 0.25 mm Pd wire (California Fine Wires) by an AC electrochemical etching method, and then insulated with high-density polyethylene, leaving an open apex of a few tens of nanometers in diameter. Before use, the probes were tested in 1 mM phosphate buffer (pH=7.4) at 0.5 V bias to ensure that the leakage current was <1 pA. For functionalization, the probe was gently cleaned using ethanol and water, respectively, and then dried with nitrogen flow. The probe was immersed in a 0.5 mg/mL peptide solution for ˜20 h. After that, the probe was taken out, rinsed with water, dried with nitrogen gas, and used immediately. Palladium substrates were prepared by depositing a 100 nm palladium film onto a 10 nm titanium adhesion layer coated onto a 750 μm thick silicon wafer using an electron-beam evaporator (Lesker PVD 75). The substrate was annealed with a hydrogen flame immediately before being functionalized by the same method as that for probe. Fourier transform infrared (FTIR) spectroscopy was used to characterize the functionalization. Pd substrates were also treated by UV- Ozone cleaner and H2 gas reduction (to remove PdO).
# Preparation of RGD and RGE: RGD peptide, cyclo(Arg-Gly-Asp-D-Phe-Cys), was obtained from Peptides International (Louisville, Ky.). RGE peptide, cyclo(Arg-Gly-Glu-D-Phe-Cys), was synthesized by CPC Scientific (Sunnyvale, Calif.) with a purity>95%. For chip and STM tip functionalization, peptides were dissolved to a final concentration of 0.5 mg/mL in a freshly degassed 1 mM phosphate buffer (pH=7.4), which was prepared using water from a Milli-Q system with a resistance of ˜18 MΩ and a total organic carbon contamination below 4 ppb.
# STM Measurements: Break junction measurements were carried out with a PicoSPM scanning probe microscope (Agilent Technologies). The Teflon liquid cells were cleaned in Piranha solution and then sonicated in Milli-Q water three times (Note that: the Piranha is highly corrosive and must be handled with extreme care). The current set point was 4 pA. Different sample bias was applied to the substrate as required. For better surface charge control, an Ag/AgCl with a salt bridge (10 mM KCl) was connected to the substrate. The tip was approached to the substrate with an integral and proportional gain of 1.0 and then left to stabilize for 0.5 h. For break junction measurements, the tip was first brought into the set point position. After 5 s of waiting, the tip was retracted 10 nm from the substrate with a speed of 0.17 nm/s, during which a current-distance trace was recorded. Subsequently, the tip was re-engaged and the retraction process repeated. About one hundred traces were collected for each experiment and at least three independent experiments were conducted for each sample (using a different substrate and tip each time).
# αVβ3 integrin = αVβ3 integrin (Homo sapiens, UniProt P05106+P06756); experiment: Capture of αVβ3 integrin by cyclic RGD peptide in junction device
# Excerpt: In experiments, the concentration used to obtain signals with the single molecule capture device had to be quite high (i.e., nanomolar or higher) in order for the probability of capturing a single molecule in a reasonable time to be significant. In some embodiments, this probability is proportional to the volume from which molecules can be captured in a reasonable time. For example, if the molecules diffuse freely with a diffusion constant D (e.g., about 10^−11 m^2/s), then the volume from which molecules can be collected in a time t, over a linear junction length L, is given approximately by πr^2L where r^2=Dt. Taking t=60 s and L=36 nm (approximately the length of the junction around the edge of a 12 nm diameter pore), about 40 molecules would be present at 1 nM concentration in the resulting volume of 6.5×10^−17 m^3 (=6.5×10^−14 liters). […] Thus, for a device with X=10 μm, the capture volume in 1 minute capture time becomes 10^−14 m^3 or almost 100× greater. In fact, upon the solution being flowed over the device, the effective capture length is orders of magnitude greater. […] Thus, if about a linear cm of fluid is flowed past a junction slowly enough that each volume of length equal to the junction length spends about a minute over the junction, then concentrations as small as a femtomole will yield a signal.
# T1 sequence (P13612 34-977 limits assumed): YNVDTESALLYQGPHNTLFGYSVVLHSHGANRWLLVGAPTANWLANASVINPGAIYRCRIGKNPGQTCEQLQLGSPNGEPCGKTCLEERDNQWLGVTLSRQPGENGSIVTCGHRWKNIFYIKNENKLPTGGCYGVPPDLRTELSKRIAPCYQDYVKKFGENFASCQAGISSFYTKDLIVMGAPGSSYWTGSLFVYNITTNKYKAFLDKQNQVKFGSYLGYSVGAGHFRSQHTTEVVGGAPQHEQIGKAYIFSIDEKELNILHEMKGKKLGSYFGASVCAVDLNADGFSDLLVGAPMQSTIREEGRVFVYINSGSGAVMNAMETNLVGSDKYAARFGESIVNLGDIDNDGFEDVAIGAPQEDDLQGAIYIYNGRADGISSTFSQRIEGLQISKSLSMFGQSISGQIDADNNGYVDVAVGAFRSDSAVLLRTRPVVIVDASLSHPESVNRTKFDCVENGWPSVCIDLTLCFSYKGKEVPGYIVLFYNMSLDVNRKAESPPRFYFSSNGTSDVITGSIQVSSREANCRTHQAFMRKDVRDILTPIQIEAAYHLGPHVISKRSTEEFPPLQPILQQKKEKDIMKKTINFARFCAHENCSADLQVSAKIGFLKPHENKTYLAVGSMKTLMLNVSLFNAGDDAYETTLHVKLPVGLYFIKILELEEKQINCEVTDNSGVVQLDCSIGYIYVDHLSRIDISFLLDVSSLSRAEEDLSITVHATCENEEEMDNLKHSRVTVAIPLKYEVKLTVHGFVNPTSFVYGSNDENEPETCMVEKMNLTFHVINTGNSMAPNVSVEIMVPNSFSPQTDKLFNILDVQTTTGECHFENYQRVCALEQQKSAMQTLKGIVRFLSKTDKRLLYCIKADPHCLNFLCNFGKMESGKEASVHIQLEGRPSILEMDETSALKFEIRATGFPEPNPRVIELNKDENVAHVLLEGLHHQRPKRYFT
# T1 sequence (P05556 21-728 limits assumed): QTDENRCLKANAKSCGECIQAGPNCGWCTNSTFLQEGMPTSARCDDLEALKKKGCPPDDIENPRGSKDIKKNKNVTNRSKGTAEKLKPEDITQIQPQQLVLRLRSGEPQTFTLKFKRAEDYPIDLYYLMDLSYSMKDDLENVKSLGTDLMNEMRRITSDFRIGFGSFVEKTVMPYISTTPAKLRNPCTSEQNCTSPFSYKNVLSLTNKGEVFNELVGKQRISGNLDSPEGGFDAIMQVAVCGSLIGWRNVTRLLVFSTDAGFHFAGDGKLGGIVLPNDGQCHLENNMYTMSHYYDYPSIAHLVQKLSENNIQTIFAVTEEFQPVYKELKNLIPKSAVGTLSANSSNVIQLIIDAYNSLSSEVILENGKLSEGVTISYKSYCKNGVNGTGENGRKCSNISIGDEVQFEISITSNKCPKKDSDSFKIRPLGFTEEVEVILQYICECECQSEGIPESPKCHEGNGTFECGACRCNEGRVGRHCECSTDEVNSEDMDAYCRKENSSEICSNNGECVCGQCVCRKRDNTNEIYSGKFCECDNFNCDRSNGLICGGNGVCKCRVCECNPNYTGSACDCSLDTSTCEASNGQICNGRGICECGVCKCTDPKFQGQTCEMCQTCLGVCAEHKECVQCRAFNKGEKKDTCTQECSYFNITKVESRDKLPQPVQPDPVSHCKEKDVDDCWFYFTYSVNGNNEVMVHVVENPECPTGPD
# T2 sequence (P06756 31-992 limits assumed): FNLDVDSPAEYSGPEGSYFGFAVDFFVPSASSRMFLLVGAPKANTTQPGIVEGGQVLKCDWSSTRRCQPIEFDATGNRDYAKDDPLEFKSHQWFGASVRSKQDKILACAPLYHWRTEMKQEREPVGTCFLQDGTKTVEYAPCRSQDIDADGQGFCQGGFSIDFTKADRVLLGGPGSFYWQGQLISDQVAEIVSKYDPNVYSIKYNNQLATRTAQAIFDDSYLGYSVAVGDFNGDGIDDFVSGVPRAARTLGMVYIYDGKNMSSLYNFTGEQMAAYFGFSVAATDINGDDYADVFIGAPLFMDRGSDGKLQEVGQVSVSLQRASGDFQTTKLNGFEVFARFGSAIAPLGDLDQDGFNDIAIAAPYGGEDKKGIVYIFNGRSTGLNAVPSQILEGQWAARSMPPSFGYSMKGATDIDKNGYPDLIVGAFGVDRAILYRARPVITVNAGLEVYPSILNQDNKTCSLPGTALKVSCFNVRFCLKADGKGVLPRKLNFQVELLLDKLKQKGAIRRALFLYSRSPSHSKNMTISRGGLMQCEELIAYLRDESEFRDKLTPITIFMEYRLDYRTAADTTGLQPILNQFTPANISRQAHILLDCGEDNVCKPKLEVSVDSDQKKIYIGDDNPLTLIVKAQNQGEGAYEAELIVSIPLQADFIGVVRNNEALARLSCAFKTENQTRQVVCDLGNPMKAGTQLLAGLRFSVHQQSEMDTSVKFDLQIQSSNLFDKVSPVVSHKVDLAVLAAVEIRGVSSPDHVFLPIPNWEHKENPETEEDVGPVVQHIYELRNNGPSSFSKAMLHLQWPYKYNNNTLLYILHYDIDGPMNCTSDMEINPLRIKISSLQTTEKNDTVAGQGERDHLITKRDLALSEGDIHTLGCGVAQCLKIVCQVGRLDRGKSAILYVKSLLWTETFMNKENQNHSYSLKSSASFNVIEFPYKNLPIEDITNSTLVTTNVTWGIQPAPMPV
# T2 sequence (P05106 27-718 limits assumed): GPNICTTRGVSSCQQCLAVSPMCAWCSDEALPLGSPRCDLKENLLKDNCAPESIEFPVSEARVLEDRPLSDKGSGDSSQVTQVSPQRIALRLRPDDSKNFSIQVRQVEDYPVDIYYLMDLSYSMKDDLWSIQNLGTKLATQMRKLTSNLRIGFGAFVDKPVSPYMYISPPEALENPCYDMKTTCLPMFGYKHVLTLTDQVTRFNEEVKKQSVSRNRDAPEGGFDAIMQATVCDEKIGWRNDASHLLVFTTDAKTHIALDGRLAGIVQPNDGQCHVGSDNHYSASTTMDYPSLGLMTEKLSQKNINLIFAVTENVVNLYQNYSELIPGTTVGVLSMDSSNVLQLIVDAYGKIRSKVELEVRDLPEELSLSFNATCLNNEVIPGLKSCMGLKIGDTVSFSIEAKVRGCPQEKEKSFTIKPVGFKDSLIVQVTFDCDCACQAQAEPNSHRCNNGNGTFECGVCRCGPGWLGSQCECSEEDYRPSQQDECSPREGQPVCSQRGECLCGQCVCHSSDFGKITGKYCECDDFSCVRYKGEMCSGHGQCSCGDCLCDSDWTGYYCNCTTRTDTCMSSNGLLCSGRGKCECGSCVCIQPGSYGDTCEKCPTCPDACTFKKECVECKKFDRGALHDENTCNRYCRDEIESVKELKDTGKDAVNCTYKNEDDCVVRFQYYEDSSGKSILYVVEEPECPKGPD
# Chain of αVβ3 integrin (P06756 31-992 limits assumed): as the sequence (P06756 31-992 limits assumed) above
# Chain of αVβ3 integrin (P05106 27-718 limits assumed): as the sequence (P05106 27-718 limits assumed) above
Substance,"frequency of large current events, α4β1 (α4β1; Modification Tip + Substrate)","frequency of large current events, α4β1 (α4β1; Modification Tip only)",Ratio (selectivity αvβ3 vs α4β1) (αvβ3; Modification Tip + Substrate),"frequency of large current events, αvβ3 (αvβ3; Modification Tip + Substrate)",Ratio (selectivity αvβ3 vs α4β1) (αvβ3; Modification Tip only),"frequency of large current events, αvβ3 (αvβ3; Modification Tip only)",binding process (αVβ3 integrin)
cyclo(RGE[dF]C) [RGE],0.25,0.28,1.2,0.31,1.3,0.36,
cyclo(RGD[dF]C) [RGD],0.19,0.21,3.1,0.57,2.6,0.55,almost irreversible
